According to the NIST ThermoML archive (doi:10.1021/je8002817):
± gives the expanded uncertainty stated by the source.

Conditions: Liquid

CCCC[N+]1(C)CCCC1.O=S(=O)([N-]S(=O)(=O)C(F)(F)F)C(F)(F)F
Conditions	mass density [kg/m3]
293.49 K, 101.33 kPa	1398 ± 1.6
293.5 K, 10000 kPa	1404 ± 1.5
293.5 K, 20000 kPa	1409.8 ± 1.9
293.5 K, 30000 kPa	1415.5 ± 2.3
293.5 K, 40000 kPa	1421 ± 2.8
293.51 K, 1000 kPa	1398.6 ± 1.2
293.51 K, 5000 kPa	1401 ± 1.4
302.66 K, 101.33 kPa	1390.1 ± 1.5
312.62 K, 101.33 kPa	1381.5 ± 1.5
322.31 K, 10000 kPa	1379.7 ± 1.5
322.31 K, 20000 kPa	1386 ± 1.9
322.31 K, 40000 kPa	1398.2 ± 2.6
322.32 K, 5000 kPa	1376.4 ± 1.3
322.32 K, 30000 kPa	1392.2 ± 2.2
322.33 K, 1000 kPa	1373.8 ± 1.2
322.35 K, 101.33 kPa	1373.2 ± 1.5
332.63 K, 101.33 kPa	1364.3 ± 1.5
342.54 K, 101.33 kPa	1355.9 ± 1.5
352.31 K, 20000 kPa	1361.5 ± 1.8
352.31 K, 40000 kPa	1374.5 ± 2.5
352.32 K, 101.33 kPa	1347.5 ± 1.4
352.32 K, 10000 kPa	1354.5 ± 1.4
352.33 K, 5000 kPa	1351 ± 1.3
352.33 K, 30000 kPa	1368.1 ± 2.1
352.35 K, 1000 kPa	1348.1 ± 1.2
373.31 K, 5000 kPa	1333.2 ± 1.3
373.31 K, 30000 kPa	1351.3 ± 2.1
373.32 K, 1000 kPa	1330.1 ± 1.2
373.33 K, 101.33 kPa	1329.5 ± 1.4
373.33 K, 10000 kPa	1337 ± 1.4
373.34 K, 20000 kPa	1344.2 ± 1.7
373.34 K, 40000 kPa	1358 ± 2.4
391.26 K, 1000 kPa	1314.9 ± 1.2
391.29 K, 10000 kPa	1322 ± 1.4
391.29 K, 30000 kPa	1337 ± 2
391.3 K, 101.33 kPa	1314.1 ± 1.4
391.3 K, 5000 kPa	1318.1 ± 1.3
391.32 K, 20000 kPa	1329.6 ± 1.7
391.32 K, 40000 kPa	1344 ± 2.4
414.93 K, 101.33 kPa	1293.9 ± 1.3
414.93 K, 5000 kPa	1298.1 ± 1.2
414.93 K, 10000 kPa	1302.4 ± 1.4
414.93 K, 20000 kPa	1310.5 ± 1.6
414.93 K, 30000 kPa	1318.1 ± 1.9
414.93 K, 40000 kPa	1325.6 ± 2.3
414.94 K, 1000 kPa	1294.7 ± 1.2

CCCC[N+](C)(C)C.O=S(=O)([N-]S(=O)(=O)C(F)(F)F)C(F)(F)F [butyltrimethylammonium bis(trifluoromethylsulfonyl)imide]
Conditions	mass density [kg/m3]
293.48 K, 101.33 kPa	1396.3 ± 1.6
293.48 K, 1000 kPa	1396.8 ± 1.2
293.49 K, 5000 kPa	1398.8 ± 1.3
293.5 K, 40000 kPa	1416.7 ± 2.7
293.51 K, 10000 kPa	1401.4 ± 1.5
293.51 K, 20000 kPa	1406.6 ± 1.9
293.51 K, 30000 kPa	1411.7 ± 2.3
302.84 K, 101.33 kPa	1387.9 ± 1.5
312.82 K, 101.33 kPa	1379 ± 1.5
322.29 K, 5000 kPa	1373.5 ± 1.3
322.31 K, 20000 kPa	1382.2 ± 1.8
322.32 K, 10000 kPa	1376.4 ± 1.5
322.32 K, 40000 kPa	1393.2 ± 2.6
322.33 K, 101.33 kPa	1370.5 ± 1.5
322.33 K, 30000 kPa	1387.7 ± 2.2
322.34 K, 1000 kPa	1371.1 ± 1.2
332.75 K, 101.33 kPa	1361.3 ± 1.5
342.67 K, 101.33 kPa	1352.5 ± 1.5
352.27 K, 20000 kPa	1356.9 ± 1.8
352.29 K, 10000 kPa	1350.5 ± 1.4
352.3 K, 5000 kPa	1347.3 ± 1.3
352.32 K, 40000 kPa	1369.1 ± 2.5
352.34 K, 30000 kPa	1363 ± 2.1
352.36 K, 101.33 kPa	1343.9 ± 1.4
352.36 K, 1000 kPa	1344.6 ± 1.2
373.28 K, 5000 kPa	1328.9 ± 1.2
373.3 K, 10000 kPa	1332.4 ± 1.4
373.3 K, 20000 kPa	1339.2 ± 1.7
373.31 K, 101.33 kPa	1325.5 ± 1.4
373.31 K, 30000 kPa	1345.8 ± 2
373.33 K, 1000 kPa	1326.2 ± 1.1
373.35 K, 40000 kPa	1352.3 ± 2.4
391.25 K, 30000 kPa	1331.2 ± 2
391.26 K, 10000 kPa	1316.9 ± 1.4
391.27 K, 1000 kPa	1310.5 ± 1.1
391.28 K, 101.33 kPa	1309.7 ± 1.4
391.28 K, 20000 kPa	1324.2 ± 1.7
391.31 K, 5000 kPa	1313.1 ± 1.2
391.31 K, 40000 kPa	1338.1 ± 2.3
414.89 K, 30000 kPa	1312.1 ± 1.9
414.92 K, 40000 kPa	1319.5 ± 2.2
414.93 K, 101.33 kPa	1288.6 ± 1.3
414.94 K, 5000 kPa	1292.5 ± 1.2
414.94 K, 10000 kPa	1296.6 ± 1.3
414.94 K, 20000 kPa	1304.5 ± 1.6
414.95 K, 1000 kPa	1289.4 ± 1.1
